Molecules are shown by their SMILES.

One assay concerns mice (C57BL/6). As to the kind of experiment: Forced swimming test (FST). It is filed as in vivo, mouse. The note with it: C57BL/6 mice, oral; DCS alone 10 mg/kg, pentoxifylline alone 80 mg/kg, combination DCS 10 mg/kg + pentoxifylline 10, 20, 80, 160 mg/kg; FST an hour after administration; immobility time in last 4 min of 6 min. As to the method: In order to test an effect of reducing depression depending on administration of the composite composition of the present invention, mice were performed to a forced swimming test (FST). The FST, which is to measure a coping strategy for acute stress that inevitably occurs, is an animal behavioral experiment commonly used to measure antidepressant effects. To confirm the effect of reducing depression by combined administration of D-cycloserine (DCS) and pentoxifylline (Pen), each group of mice was administered orally with the vehicle (DW 5 ml/kg), DCS (administered alone at 10 mg/kg), pentoxifylline (administered alone at 80 mg/kg) and DCS+pentoxifylline (DCS 10 mg/kg and pentoxifylline 10, 20, 80, 160 mg/kg combination treatment group). After administration, the forced swimming test (FST) that measures depression-like behavior was performed on the mice. Specifically, each mice group (C57BL/6) was individually placed in a 3 L Pyrex beaker (13 cm in diameter, 24 cm in height), and the beakers were filled with 26° C. of water up to a depth of 9 cm. All mice were forced to swim for 6 minutes, and immobility time was measured for the last 4 minutes of the experiment. The immobility time is defined as the […] time taken while the mouse is floating without struggling or taking only the movement required for keeping the mouse's head above the water surface.

The subject of the next assay is mice (C57BL6). The assay is described as follows: Tail suspension test (TST). The format is in vivo, mouse. The note with it: DCS alone 10 mg/kg, pentoxifylline alone 80 mg/kg, combination DCS 10 mg/kg + pentoxifylline 10, 20, 80, 160 mg/kg, TST 1 hour after administration, immobility time over 6 min. From the text: In order to test an effect of reducing depression depending on administration of the composite composition of the present invention, mice were subjected to a tail suspension test (TST). The TST, which is to measure a stress in a rodent animal model, is based on the behavior of an experimental animal facing immobile posture in the face of short-term, irreversible stress. In the technical field of the present invention, the TST is used to measure the effect of antidepressant. To confirm the effect of reducing depression by combined administration of D-cycloserine (DCS) and pentoxifylline (Pen), DCS, Pen alone or a composite composition were administered to all groups of mice (C57BL6). Each group of mice was administered with the vehicle (DW 5 ml/kg), DCS (administered alone at 10 mg/kg), pentoxifylline (administered alone at 80 mg/kg), and DCS+pentoxifylline (DCS 10 mg/kg and pentoxifylline 10, 20, 80, 160 mg/kg combination treatment group). After 1 hour, the tail suspension test (TST) that measures depression-like behavior was performed on the mice. […] The experiment started as soon as the mouse was hung, and the immobility time was measured for 6 minutes after the start of the experiment. […]

On to `N[C@@H]1CONC1=O` [DCS, D-cycloserine], for which the “immobility in FST compared to the control group administered with the vehicle” value in the assay on mice (C57BL/6) is on record as “did not show significantly different in immobility”. The “immobility in TST compared to the control group administered with the vehicle” value in the assay on mice (C57BL6) was “did not show statistical significance”.
Take `CC(=O)CCCCn1c(=O)c2c(ncn2C)n(C)c1=O` [pentoxifylline]: the “immobility in FST compared to the control group administered with the vehicle” value with mice (C57BL/6) is “did not show significantly different in immobility”. The “immobility in TST compared to the control group administered with the vehicle” value in the assay with mice (C57BL6) is “did not show statistical significance”.

The values above are taken from patent publication US20230165866A1, “CYCLOSERINE AND PENTOXIFYLLINE COMBINATION THERAPY FOR TREATMENT OF DEPRESSION” (NEURORIVE INC, priority 2020, published 2023).
